Experimental data published in ChEMBL document CHEMBL5226309, “Synthetic RNA Modulators in Drug Discovery” (J Med Chem, 2021).
Values belong to the compound of their own block, whether it stands above or below them.

Assays:
[1] = Downregulation of alpha-Synuclein level in human SH-SY5Y cells at 1 uM relative to control; format: functional
HeLa = experiment: Cytotoxicity against human HeLa cells; format: functional
[2] = tested on: Human immunodeficiency virus 1; experiment: Antiviral activity against HIV-1 infected in human T cell line assessed as inhibition of DNA replication; format: functional, organism-based; conditions: Human immunodeficiency virus 1, T-cell
[3] = target: T1, Muscleblind-like protein 1 (Homo sapiens, UniProt Q9NR56); experiment: Binding affinity to MBNL1 (unknown origin) assessed as dissociation constant
T1 sequence (Q9NR56 whole entry): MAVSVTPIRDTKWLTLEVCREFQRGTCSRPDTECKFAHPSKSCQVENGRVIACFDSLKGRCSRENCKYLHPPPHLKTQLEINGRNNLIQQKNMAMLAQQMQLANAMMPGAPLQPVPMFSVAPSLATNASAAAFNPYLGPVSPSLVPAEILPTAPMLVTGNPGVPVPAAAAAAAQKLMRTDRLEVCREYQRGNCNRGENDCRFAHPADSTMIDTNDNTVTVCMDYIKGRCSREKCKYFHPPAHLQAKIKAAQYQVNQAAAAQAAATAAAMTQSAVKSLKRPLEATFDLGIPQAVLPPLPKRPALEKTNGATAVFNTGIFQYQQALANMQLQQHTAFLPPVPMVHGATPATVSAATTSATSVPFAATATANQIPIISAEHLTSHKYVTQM

[4] = Inhibition of r(CCUG)12-MBNL1 (unknown origin) by gel electrophoretic mobility shift assay; set-up: species or system Homo sapiens
[5] = Binding affinity to r(CCUG)12 (unknown origin) assessed as dissociation constant
Escherichia coli [6] = experiment: In vivo antibacterial activity against Escherichia coli MB5746 infected in DBA/2J mouse assessed as log 10 reduction in CFU in spleen at 60 mg/kg, sc administered every 3 hrs for 24 hrs (reference value: 9.53 log10 CFU); format: functional
Escherichia coli [7] = experiment: Antibacterial activity against Escherichia coli MB5746; format: functional, organism-based
Escherichia coli [8] = experiment: In vivo antibacterial activity against Escherichia coli MB5746 infected in DBA/2J mouse assessed as log 10 reduction in CFU in spleen at 120 mg/kg, sc administered every 3 hrs for 24 hrs (reference value: 9.53 log10 CFU); format: functional
[9] = Binding affinity to telomeric RNA (unknown origin) assessed as dissociation constant
[10] = target: T2, Microtubule-associated protein tau (Homo sapiens, UniProt P10636); experiment: Binding affinity to tau (unknown origin)
[11] = target: T2, Microtubule-associated protein tau; experiment: Inhibition of tau in human LA-N-5 cells assessed as reduction in 4R/3R ratio; format: cell-based; conditions: concentration not given here
[12] = target: Microtubule-associated protein tau (Rattus norvegicus) (UniProt P19332); experiment: Inhibition of tau in rat Primary cortical neuron cell assessed as reduction in 4R/3R ratio; format: cell-based; conditions: concentration not given here
[13] = target: T2, Microtubule-associated protein tau; experiment: Inhibition of tau (unknown origin)
[14] = Binding affinity to HIV-1 mRNA assessed as dissociation constant; set-up: species or system Human immunodeficiency virus 1
[15] = tested on: Human immunodeficiency virus 1; experiment: Antiviral activity against HIV-1; format: functional, organism-based
MCF7 = experiment: Induction of apoptosis in human MCF7 cells at 100 uM; format: functional
U-251 = experiment: Induction of apoptosis in human U-251 cells at 100 uM; format: functional
[16] = Binding affinity to Precursor microRNA-210 (unknown origin) assessed as dissociation constant
MDA-MB-231 = experiment: Inhibition of Precursor microRNA-210 in human MDA-MB-231 cells at 200 nM relative to control; format: cell-based
[17] = Effect on tau protein expression in human SH-SY5Y cells; format: functional, cell-based
[18] = Binding affinity to Precursor microRNA-515 (unknown origin) assessed as dissociation constant

T2 sequence (P10636 whole entry): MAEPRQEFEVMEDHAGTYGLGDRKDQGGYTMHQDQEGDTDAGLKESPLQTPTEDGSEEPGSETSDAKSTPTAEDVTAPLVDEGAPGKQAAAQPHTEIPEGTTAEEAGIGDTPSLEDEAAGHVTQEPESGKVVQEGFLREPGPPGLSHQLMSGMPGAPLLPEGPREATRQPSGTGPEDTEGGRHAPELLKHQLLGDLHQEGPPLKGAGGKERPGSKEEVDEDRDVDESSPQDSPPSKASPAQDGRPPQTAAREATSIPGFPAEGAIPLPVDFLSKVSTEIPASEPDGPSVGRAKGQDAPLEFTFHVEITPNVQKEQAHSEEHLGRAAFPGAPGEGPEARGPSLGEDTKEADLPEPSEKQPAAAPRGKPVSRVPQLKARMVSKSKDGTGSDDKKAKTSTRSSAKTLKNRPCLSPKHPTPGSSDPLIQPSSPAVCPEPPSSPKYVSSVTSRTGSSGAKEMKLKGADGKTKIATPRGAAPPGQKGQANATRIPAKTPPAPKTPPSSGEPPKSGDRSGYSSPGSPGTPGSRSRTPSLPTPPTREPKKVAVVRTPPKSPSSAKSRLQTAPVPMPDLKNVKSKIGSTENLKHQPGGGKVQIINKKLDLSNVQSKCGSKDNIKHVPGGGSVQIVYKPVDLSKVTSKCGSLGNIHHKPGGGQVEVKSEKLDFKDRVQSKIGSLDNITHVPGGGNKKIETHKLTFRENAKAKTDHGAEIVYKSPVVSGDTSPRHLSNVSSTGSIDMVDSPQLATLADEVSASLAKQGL
Chain of Microtubule-associated protein tau (Rattus norvegicus) (P19332 whole entry): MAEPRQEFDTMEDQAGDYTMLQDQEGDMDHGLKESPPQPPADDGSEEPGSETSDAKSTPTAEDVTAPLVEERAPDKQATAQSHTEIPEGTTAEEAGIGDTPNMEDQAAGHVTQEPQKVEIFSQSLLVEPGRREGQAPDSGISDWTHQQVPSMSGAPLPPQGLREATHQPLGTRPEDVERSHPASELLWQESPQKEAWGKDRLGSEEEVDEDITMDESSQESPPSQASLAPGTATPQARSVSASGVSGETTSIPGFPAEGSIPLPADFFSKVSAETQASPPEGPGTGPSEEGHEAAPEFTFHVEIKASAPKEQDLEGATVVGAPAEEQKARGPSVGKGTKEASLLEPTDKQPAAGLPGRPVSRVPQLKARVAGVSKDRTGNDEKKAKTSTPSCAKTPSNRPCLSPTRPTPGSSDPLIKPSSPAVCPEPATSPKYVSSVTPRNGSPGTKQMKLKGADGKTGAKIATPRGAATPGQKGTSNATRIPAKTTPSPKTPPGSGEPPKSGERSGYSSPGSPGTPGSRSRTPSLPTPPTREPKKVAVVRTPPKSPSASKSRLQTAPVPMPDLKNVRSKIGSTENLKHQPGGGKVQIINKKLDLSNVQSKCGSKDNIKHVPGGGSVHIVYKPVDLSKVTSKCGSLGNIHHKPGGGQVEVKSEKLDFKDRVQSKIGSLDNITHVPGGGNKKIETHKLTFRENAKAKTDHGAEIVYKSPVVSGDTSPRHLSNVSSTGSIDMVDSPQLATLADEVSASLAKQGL

SMILES: N=C(N)c1ccc(Nc2ccc(-c3cc4ccc(C(=N)N)cc4[nH]3)cc2)cc1
Activity [1]: 67%

SMILES: O=C1c2c(O)ccc(O)c2C(=O)c2c(NCCNCCO)ccc(NCCNCCO)c21 [MITOXANTRONE]
Activity (HeLa): 1 µM | IC50 [2]: 23100 nM

Kd [3]: > 200000 nM | IC50 [4]: 115000 nM | Kd [5]: 8000 nM
SMILES: N=C(NCCCCNc1nc(N)nc(N)n1)c1ccc(C(=N)NCCCCNc2nc(N)nc(N)n2)cc1

IC50 (Escherichia coli [7]): 300 nM
SMILES: CNc1ncc(CN2CCCC(c3nc(O)cc(-c4cccs4)n3)C2)cn1 (configuration not stated)
Activity (Escherichia coli [6]): 7.76 log10CFU/g | Activity (Escherichia coli [8]): 6.24 log10CFU/g

Kd [9]: 5900 nM
SMILES: O=c1c2cc(-c3ccco3)sc2nc2n1Cc1nc3sc(-c4ccco4)cc3c(=O)n1C2

Kd [10]: 4900 nM | inhibition [11]: 40% | inhibition [12]: 50% | IC50 [13]: 2100 nM
SMILES: COc1ccc2[nH]c3c(c2c1)N=CN(CCCN(C)C1CCCCC1)C3

Kd [14]: 110 nM | IC50 [15]: 410 nM
SMILES: CC(=O)Nc1nc(CC(=O)c2cccc(NC(=O)[C@@H](N)CCCCNC(=N)N)c2)cs1

SMILES: NC(=O)c1ncn2c(=O)n(NC(=O)c3nc4c(N)cccc4[nH]3)nnc12
Activity (MCF7): 30% | Activity (U-251): 30%

Kd [16]: 340 nM
SMILES: CN1CCN(c2ccc3nc(-c4ccc(OCCCC(=O)NCCCOCC(O)COP(=O)(O)O[C@@H]5[C@H](O)[C@@H](COP(=O)(O)O[C@@H]6[C@H](O)[C@@H](COP(=O)(O)O[C@@H]7[C@H](O)[C@@H](COP(=O)(O)O[C@@H]8[C@H](O)[C@@H](COP(=O)(O)O)O[C@H]8n8cnc9c(N)ncnc98)O[C@H]7n7cnc8c(N)ncnc87)O[C@H]6n6cnc7c(N)ncnc76)O[C@H]5n5cnc6c(N)ncnc65)cc4)[nH]c3c2)CC1 (some centres not stated)
inhibition (MDA-MB-231): 50%

EC50 [17]: 57.2 nM
SMILES: N=C(N)NC[C@H]1O[C@H](O[C@@H]2[C@@H](OCCSSCCNCCNc3ccc(NCCNCCO)c4c3C(=O)c3ccccc3C4=O)[C@H](O)[C@@H](NC(=N)N)C[C@H]2NC(=N)N)[C@H](NC(=N)N)[C@@H](O)[C@@H]1O

Kd [18]: 60 nM
SMILES: CCCN(CC(=O)N(CCC)CC(=O)N(CCC)CC(=O)N(CCC)CC(=O)N(CC(N)=O)Cc1cn(CCCNC(=O)CCCOc2c(C(C)(C)C)cc(-c3nc4ccc(-c5ccc(N6CCN(C)CC6)cc5)cc4[nH]3)cc2C(C)(C)C)nn1)C(=O)CNCc1cn(CCCNC(=O)CCCOc2c(C(C)(C)C)cc(-c3nc4ccc(-c5ccc(N6CCN(C)CC6)cc5)cc4[nH]3)cc2C(C)(C)C)nn1
